Here are results for 12 compounds from ChEMBL document CHEMBL4406808, “Synthesis and assessment of phenylacrylamide derivatives as potential anti-oxidant and anti-inflammatory agents” (Eur J Med Chem, 2019).

pIC50: −log10 of the molar value. Active and inactive are the calls of the source. No cut-off for these calls is given here.

For assay [1], the target named is T1, Nuclear factor erythroid 2-related factor 2 (Homo sapiens) (UniProt Q16236).
T1 sequence (whole entry): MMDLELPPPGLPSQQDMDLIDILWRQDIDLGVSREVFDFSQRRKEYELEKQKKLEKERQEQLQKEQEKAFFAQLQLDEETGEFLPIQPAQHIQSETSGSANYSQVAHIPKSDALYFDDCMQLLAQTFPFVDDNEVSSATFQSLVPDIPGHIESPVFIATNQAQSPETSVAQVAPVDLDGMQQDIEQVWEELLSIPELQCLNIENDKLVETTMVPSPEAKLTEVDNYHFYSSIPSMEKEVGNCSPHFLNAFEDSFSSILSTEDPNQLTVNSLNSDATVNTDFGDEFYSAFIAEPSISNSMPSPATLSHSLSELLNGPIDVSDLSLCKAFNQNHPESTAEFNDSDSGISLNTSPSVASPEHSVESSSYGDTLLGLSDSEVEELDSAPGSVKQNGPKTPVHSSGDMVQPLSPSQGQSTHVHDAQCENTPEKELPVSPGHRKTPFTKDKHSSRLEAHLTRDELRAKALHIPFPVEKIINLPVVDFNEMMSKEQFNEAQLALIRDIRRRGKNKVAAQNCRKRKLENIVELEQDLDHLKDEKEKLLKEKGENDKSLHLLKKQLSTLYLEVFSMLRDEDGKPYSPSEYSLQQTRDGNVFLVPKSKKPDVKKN
In words: Activation of Nrf2 (unknown origin) expressed in HEK293 cells co-transfected with ARE luciferase reporter plasmid at 20 uM after 16 hrs by dual luciferase reporter gene assay. The format is cell-based.

Assay [2] concerns HBZY-1. Briefly: Cytoprotection activity against H2O2-induced cell death in rat HBZY-1 cells assessed as cell viability at 6 uM preincubated with compound for 2 hrs followed by H2O2 addition and measured after 24 hrs by MTT assay (reference value: 62.1%). The format is functional. The following applies: read-out: Activity.
For assay [3], the system named is HBZY-1. Briefly: Cytotoxicity against rat HBZY-1 cells assessed as reduction in cell viability after 2 hrs by MTT assay. The class given is cell-based. The following applies: HBZY-1, 2 h.

`CC(C)(C)c1cc(O)ccc1O`: the outcome in assay [1] was Active. For `COc1ccccc1NC(=O)/C(C#N)=C/c1cccc([N+](=O)[O-])c1`, the viability at 6 µM in the assay with HBZY-1 [2] is 65.6 to 96.4%. For the same compound, the pIC50 in the assay with HBZY-1 [3] was under 3.70.

In the case of `COc1ccccc1NC(=O)/C(C#N)=C/c1ccc(C)cc1`, the viability at 6 µM in the assay with HBZY-1 [2] was 65.6 to 96.4%. In addition, the pIC50 in the assay with HBZY-1 [3] was under 3.70. Consider `COc1ccc(CCNC(=O)/C(C#N)=C/c2ccccc2C(F)(F)F)cc1OC`, for which the viability at 6 µM in the assay on HBZY-1 [2] fell in the range of 65.6 to 96.4%. In addition, in the assay with HBZY-1 [3], the negative-log IC50 (pIC50) is under 3.70. In the case of `O=C(/C=C/c1ccccc1C(F)(F)F)Nc1ccc(F)c(Cl)c1`, the viability at 6 µM with HBZY-1 [2] is 65.6 to 96.4%. In the assay on HBZY-1 [3], the pIC50 was under 3.70. For the compound `COc1ccccc1NC(=O)/C(C#N)=C/c1cccc(C)c1`, in the assay on HBZY-1 [2], the viability at 6 µM was in the range of 65.6 to 96.4%. Moreover, the pIC50 with HBZY-1 [3] is under 3.70. In the case of `COc1ccc(CNC(=O)/C(C#N)=C/c2ccccc2C(F)(F)F)cc1`, the viability at 6 µM with HBZY-1 [2] amounted to 80.8%. The pIC50 in the assay on HBZY-1 [3] is under 3.70. The corresponding values for `COc1ccc(CNC(=O)/C=C/c2ccccc2C(F)(F)F)cc1` are 65.6 to 96.4% and under 3.70. Turning to `COc1cc(NC(=O)/C=C/c2ccccc2C(F)(F)F)cc(OC)c1OC`, the viability at 6 µM in the assay with HBZY-1 [2] was in the range of 65.6 to 96.4%. For the same compound, the pIC50 in the assay with HBZY-1 [3] was under 3.70. For the compound `COc1ccccc1NC(=O)/C=C/c1ccccc1C(F)(F)F`, the viability at 6 µM in the assay with HBZY-1 [2] was in the range of 65.6 to 96.4%. In addition, the pIC50 in the assay on HBZY-1 [3] is under 3.70. For the compound `COc1ccc(NC(=O)/C(C#N)=C/c2ccccc2C(F)(F)F)cc1`, in the assay with HBZY-1 [2], the viability at 6 µM was determined as 82.4%. Moreover, the negative logarithm of the IC50 (pIC50) with HBZY-1 [3] was under 3.70. For `C[S+]([O-])CCCCN=C=S` (configuration not stated) [SULFORAPHANE], the viability at 6 µM in the assay with HBZY-1 [2] was found to be 80%.
